Test results published in PMC9301920, “Physiologically Based Toxicokinetic Modeling of Bisphenols in Zebrafish (Danio rerio) Accounting for Variations in Metabolic Rates, Brain Distribution, and Liver Accumulation” (Environmental Science & Technology, 2022).
Structures can show the parent of a compound that is named as a salt. Where two headings read alike, the source gives them in different places. Marks after values point to notes of the source that are not given here.

How the values were obtained:
[1] = hepatocytes; cited from earlier work
[2] = cited from earlier work
Estrogen receptor (ER) [3] = molecular target: Estrogen receptor (ER); design: method as in Tox21; details: ATG Era Trans up assay; ref Tox21; cited from earlier work
[4] = In vitro biotransformation rate, rainbow trout liver S9 (OECD TG 319); assay type: in vitro ADME
Protocol: In brief, rainbow trout liver S9 homogenate was preincubated in buffer and cofactors, followed by 120 min of incubation with bisphenol. From each duplicate, 50 μL of subsamples was taken at timepoints 0, 2, 5, 15, 30, 60, 90, and 120 min and mixed with 200 μL of ice-cold methanol. The protocol of the procedure is described further in Section 2.
1042. Biotransformation rate estimation methodology
106Trinova Biochem; Lot: 180216) was pre-incubated at 11°C in K 2HPO4/KH2PO4 buffer
107(pH=7.8; 1 mL final volume) containing alamethicin from Trichoderma viride (25 μg/mL), and
108cofactors NADPH (2 mM), UDPGA (2 mM), GSH (5 mM), and PAPS (0.1 mM). After 10 min
109of preincubation, biotransformation was started by adding 5 µL of bisphenol test compound
110dissolved in methanol (1 µM final concentration). […]

Estrogen receptor (ER) [5] = molecular target: Estrogen receptor (ER); design: method as in Tox21; details: ATG ERE CIS up assay; ref Tox21; cited from earlier work
zebrafish [6] = details: cited from earlier work
UGT1A1 = tested on: UGT1A1; design: method as in Wang et al. 64; details: single isolated enzyme; ref Wang et al. 64; cited from earlier work
zebrafish [7] = details: female, observed, ref Chen et al. 43, cited from earlier work
[8] = cited from earlier work; remark: listed apart in the source
zebrafish [9] = details: cited from earlier work; remark: listed apart in the source
[10] = cited from earlier work; remark: listed apart in the source
Estrogen receptor (ER) [11] = molecular target: Estrogen receptor (ER); design: method as in Kitamura et al. 2005; details: ERE-luciferase reporter assay, MCF-7 cells; ref Kitamura et al. 2005; cited from earlier work
ER = details: known from literature, no reference given; cited from earlier work
zebrafish [12] = tested on: zebrafish; design: method as in Nyholm et al. 46; details: female, observed, ref Nyholm et al. 46, cited from earlier work
zebrafish [13] = test: PBTK parameter fitting (Nelder–Mead algorithm) to in vivo zebrafish data; design: species or system zebrafish (Danio rerio); details: fitted on egg TBBPA concentrations, 100 nmol/g feed (Nyholm et al.)
From the text: Ovaries and eggs were assumed to receive the same blood flow. The equation for the egg compartment was described as follows using the diffusion-limited equation previously described by Thompson and Beard[51] [drawing 4] 4 where dAegg/dt represents the rate of change of bisphenol over time in the egg compartment, Agon and Aegg represent the amount of compound in the gonads and egg, respectively, Vgon and Vegg are the volumes of the gonads and eggs, respectively, and Pgon and Pegg are the partition coefficients of the gonads to blood and egg to gonads.
Parameter fitting was done in R using the modFit function in the FME package with the Nelder–Mead algorithm.[53]
279For fitting, the model was run using the exposure scenarios of each fitting data set.
280parameters were fixed as presented in Tables S10-S14 with exception of the parameter for
281which fitting was performed. The outcome evaluated by fitting algorithm was the concentration
282over time in the same tissue as the experimental data. Outcomes used for fitting to measured
283experimental data were: concentration in brain for brain-blood partition coefficient,
284concentration in liver for liver-blood partition coefficient, concentration in eggs for egg-gonad
285partition coefficient and whole-body metabolite concentration for Ke bile and KBG of metabolites.
286For the liver, brain and egg partitioning, the range was set between 0.01 and 500 and the Nelder-
287Mead algorithm was run with initial estimates at 1, 5, 10, 50 and 500 in order to assure a global
288minimum was found. The fitted values returning the lowest squared sum of residuals were used
The GI lumen to GI tract diffusion rate (K u)

[14] = from measured S9 clearance, transformed as suggested by Nichols et al.
[15] = measured human values, ref CompTox Dashboard
[16] = in vitro incubation with rainbow trout liver S9, assuming 163 mg S9 protein/g liver
[17] = 20 μg/L, female, liver, observed, ref Shi et al. 47
[18] = 20 μg/L, female, ovaries, observed, ref Shi et al. 47
[19] = 20 μg/L, female, whole body, observed, ref Shi et al. 47
[20] = 20 μg/L, male, liver, observed, ref Shi et al. 47
[21] = 20 μg/L, male, testes, observed, ref Shi et al. 47
[22] = 20 μg/L, male, whole body, observed, ref Shi et al. 47
[23] = cells marked g, ref Staples et al. 1998
[24] = metabolite, Female, whole body, Observed, ref Shi et al. 2016
[25] = metabolite, Male, whole body, Observed, ref Shi et al. 2016
[26] = measured values, ref Grumetto et al 2019
[27] = metabolite, Female, whole body, Observed, ref Lindholst et al. 2003

O=C(c1ccc(O)cc1O)c1ccc(O)cc1O [BP-2, benzophenone 2]
CL (human clearance rate) [1]: 1.41*105 ml/d/g liver
Funbound (plasma fraction unbound) ([2]; human, plasma): 0.035
EC50 (Estrogen receptor (ER) [3]): 620 nM
CL (clearance rate) ([4]; 163 mg): 5.79 × 10^4 mL/d/g liver
CLin vivo,int (in vivo intrinsic clearance) ([4]; s9): 869 L/d/Kg fish
EC50 (Estrogen receptor (ER) [5]): 620 nM

CC(C)(c1ccc(O)cc1)c1ccc(OS(=O)(=O)O)cc1 [BPA sulfate]
concentrations relative to those of the glucuronide (zebrafish [6]; zebrafish, in vivo): 1000 times lower

CC(C)(c1ccc(O)cc1)c1ccc(O)cc1 [BPA, Bisphenol A]
CL (human clearance rate) [1]: 1.46*105 ml/d/g liver
Funbound (plasma fraction unbound) ([2]; plasma): 0.035
UGT1A1 activity (UGT1A1): 5.19 pmol/min/mg protein
BCF (zebrafish [7]; 1.94 μg/L, liver): 201
BCF (zebrafish [7]; 1.94 μg/L, ovaries): 10.3
BCF (zebrafish [7]; 5.72 μg/L, liver): 199
BCF (zebrafish [7]; 5.72 μg/L, ovaries): 21.0
BCF (zebrafish [7]; 5.72 μg/L, whole body): 19.2
CLin vivo,int (in vivo intrinsic clearance) [4, 14]: 36.7 L/d/Kg fish
log Kow ([8]; ref Staples et al. 67): 3.42 ^f
BCF (zebrafish [6]; 97.5 μg/L, gender not specified, whole body, observed, ref Lindholst et al. 39): 6.46
t1/2 (zebrafish [6]; zebrafish, in vivo): 107 h

Oc1ccc(C(c2ccc(O)cc2)(C(F)(F)F)C(F)(F)F)cc1 [BPAF, bisphenol AF]
Funbound (plasma fraction unbound) [2, 15]: 0.010
CL ([4]; both series combined): 0.78 mL/(h x mg)
CLin vivo,int (in vivo intrinsic clearance) [4, 14]: 45.5 L/d/Kg fish
CL (clearance rate) [4, 16]: 3.04 × 10^3 mL/d/g liver
CL ([4]; series 1 (s1)): 0.75 mL/(h x mg)
k (first-order disappearance rate constant) ([4]; series 1 (s1)): 0.73 h⁻¹
CL ([4]; series 2 (s2)): 0.80 mL/(h x mg)
k (first-order disappearance rate constant) ([4]; series 2 (s2)): 0.78 h⁻¹
AUC (zebrafish [9]; [17]): 1.38 µg/g/day
BCF (zebrafish [9]; [17]): 11.9
Cmax (zebrafish [9]; [17]): 0.24 µg/g
t1/2 (zebrafish [9]; [17]): 204 h
AUC (zebrafish [9]; [18]): 1.50 µg/g/day
BCF (zebrafish [9]; [18]): 10.9
Cmax (zebrafish [9]; [18]): 0.22 µg/g
t1/2 (zebrafish [9]; [18]): 190 h
AUC (zebrafish [9]; [19]): 0.8 µg/g/day
BCF (zebrafish [9]; [19]): 7.04
Cmax (zebrafish [9]; [19]): 0.14 µg/g
t1/2 (zebrafish [9]; [19]): 120 h
AUC (zebrafish [9]; [20]): 4.93 µg/g/day
BCF (zebrafish [9]; [20]): 40.5
Cmax (zebrafish [9]; [20]): 0.81 µg/g
t1/2 (zebrafish [9]; [20]): 610 h
AUC (zebrafish [9]; [21]): 3.23 µg/g/day
BCF (zebrafish [9]; [21]): 27.5
Cmax (zebrafish [9]; [21]): 0.55 µg/g
t1/2 (zebrafish [9]; [21]): 20.4 h
AUC (zebrafish [9]; [22]): 1.25 µg/g/day
BCF (zebrafish [9]; [22]): 9.80
Cmax (zebrafish [9]; [22]): 0.20 µg/g
t1/2 (zebrafish [9]; [22]): 85.9 h

O=C(O)[C@H]1O[C@@H](Oc2ccc(C(c3ccc(O)cc3)(C(F)(F)F)C(F)(F)F)cc2)[C@H](O)[C@@H](O)[C@@H]1O [BPAF-GA, BPAF glucuronic acid]
Ratio blood-plasma [10, 23]: 1.00
AUC (zebrafish [9]; [24]): 6.54 µg/g/day
Cmax (zebrafish [9]; [24]): 1.09 µg/g
AUC (zebrafish [9]; [25]): 3.54 µg/g/day
Cmax (zebrafish [9]; [25]): 0.60 µg/g

CC(c1ccccc1)(c1ccc(O)cc1)c1ccc(O)cc1 [BPAP, bisphenol AP]
EC50 (Estrogen receptor (ER) [3]): 120 nM
CL ([4]; both series combined): 1.80 mL/(h x mg)
CLin vivo,int (in vivo intrinsic clearance) [4, 14]: 106 L/d/Kg fish
CL (clearance rate) [4, 16]: 7.06 × 10^3 mL/d/g liver
CL ([4]; series 1 (s1)): 1.79 mL/(h x mg)
k (first-order disappearance rate constant) ([4]; series 1 (s1)): 1.73 h⁻¹
CL ([4]; series 2 (s2)): 1.82 mL/(h x mg)
k (first-order disappearance rate constant) ([4]; series 2 (s2)): 1.74 h⁻¹
EC50 (Estrogen receptor (ER) [5]): 290 nM

CCC(C)(c1ccc(O)cc1)c1ccc(O)cc1 [BPB, bisphenol B]
Funbound (plasma fraction unbound) [2, 15]: 0.018
EC50 (Estrogen receptor (ER) [3]): 130 nM
Ratio blood-plasma [10, 26]: 1.04
CL ([4]; both series combined): 0.96 mL/(h x mg)
CLin vivo,int (in vivo intrinsic clearance) [4, 14]: 56.4 L/d/Kg fish
CL (clearance rate) [4, 16]: 3.76 × 10^3 mL/d/g liver
CL ([4]; series 1 (s1)): 0.92 mL/(h x mg)
k (first-order disappearance rate constant) ([4]; series 1 (s1)): 0.95 h⁻¹
CL ([4]; series 2 (s2)): 1.00 mL/(h x mg)
k (first-order disappearance rate constant) ([4]; series 2 (s2)): 0.99 h⁻¹
EC50 (Estrogen receptor (ER) [11]): 70 nM
EC50 (Estrogen receptor (ER) [5]): 170 nM

Cc1cc(C(C)(C)c2ccc(O)c(C)c2)ccc1O [BPC, bisphenol C]
CL ([4]; both series combined): 1.03 mL/(h x mg)
CLin vivo,int (in vivo intrinsic clearance) [4, 14]: 60.6 L/d/Kg fish
CL (clearance rate) [4, 16]: 4.04 × 10^3 mL/d/g liver
CL ([4]; series 1 (s1)): 1.01 mL/(h x mg)
k (first-order disappearance rate constant) ([4]; series 1 (s1)): 1.03 h⁻¹
CL ([4]; series 2 (s2)): 1.05 mL/(h x mg)
k (first-order disappearance rate constant) ([4]; series 2 (s2)): 1.05 h⁻¹

Oc1ccc(Cc2ccc(O)cc2)cc1 [BPF, bisphenol F]
EC50 (Estrogen receptor (ER) [3]): 950 nM
Ratio blood-plasma [10, 26]: 1.41
CL ([4]; both series combined): 0.31 mL/(h x mg)
CLin vivo,int (in vivo intrinsic clearance) [4, 14]: 18.0 L/d/Kg fish
CL (clearance rate) [4, 16]: 1.20 × 10^3 mL/d/g liver
CL ([4]; series 1 (s1)): 0.31 mL/(h x mg)
k (first-order disappearance rate constant) ([4]; series 1 (s1)): 0.31 h⁻¹
CL ([4]; series 2 (s2)): 0.30 mL/(h x mg)
k (first-order disappearance rate constant) ([4]; series 2 (s2)): 0.31 h⁻¹
EC50 (Estrogen receptor (ER) [11]): 1000 nM
log Kow ([8]; measured value, ref CompTox Dashboard): 2.91 ^h
EC50 (Estrogen receptor (ER) [5]): 780 nM

O=S(=O)(c1ccc(O)cc1)c1ccc(O)cc1 [BPS, bisphenol S]
EC50 (Estrogen receptor (ER) [3]): 800 nM
k (first-order disappearance rate constant) ([4]; series 1 (s1)): 0.41 h⁻¹
k (first-order disappearance rate constant) ([4]; series 2 (s2)): 0.48 h⁻¹
EC50 (Estrogen receptor (ER) [11]): 1100 nM
EC50 (Estrogen receptor (ER) [5]): 1420 nM

CC(C)(C)c1cc(Cc2cc(C(C)(C)C)c(O)c(C(C)(C)C)c2)cc(C(C)(C)C)c1O [Bimox M]
ER activity (ER): inactive on the ER
CL (in vitro rainbow trout clearance rate) [4]: 0 ml/d/g liver
metabolic degradation [4]: no metabolic degradation
CL (clearance rate) ([4]; 163 mg): 0 mL/d/g liver
CLin vivo,int (in vivo intrinsic clearance) ([4]; s9): 0 L/d/Kg fish

CC(C)(c1cc(Br)c(O)c(Br)c1)c1cc(Br)c(O)c(Br)c1 [TBBPA, tetrabromobisphenol A]
Funbound (plasma fraction unbound) [2, 15]: 0.001
parent compound metabolized when levels stopped decreasing ([4]; after 15 min of incubation, both repetitions): ~70%
CL ([4]; both series combined): 4.18 mL/(h x mg)
CLin vivo,int (in vivo intrinsic clearance) [4, 14]: 245 L/d/Kg fish
CL (clearance rate) [4, 16]: 1.63 × 10^4 mL/d/g liver
CL ([4]; series 1 (s1)): 3.90 mL/(h x mg)
k (first-order disappearance rate constant) ([4]; series 1 (s1)): 3.95 h⁻¹
CL ([4]; series 2 (s2)): 4.45 mL/(h x mg)
k (first-order disappearance rate constant) ([4]; series 2 (s2)): 4.38 h⁻¹
AUC (zebrafish [12]; 10 nmol/g feed, egg): 0.017 µg/g/day
Cmax (zebrafish [12]; 10 nmol/g feed, egg): 0.001 µg/g
AUC (zebrafish [12]; 10 nmol/g feed, whole body): 0.291 µg/g/day
Cmax (zebrafish [12]; 10 nmol/g feed, whole body): 0.015 µg/g
AUC (zebrafish [12]; 100 nmol/g feed, egg): 0.118 µg/g/day
Cmax (zebrafish [12]; 100 nmol/g feed, egg): 0.004 µg/g
log Kow ([8]; measured value, ref Kuramochi et al. 68): 6.53 ^i
Ku (diffusion coefficient from GI lumen into GI tract) (zebrafish [13]): 8.40
Pegg (egg-gonad partition coefficient) (zebrafish [13]; used for all bisphenols): 1.58

BPA glucuronic acid [BPA-GA]
Ratio blood-plasma [10, 23]: 1.00
AUC (zebrafish [6]; [27]): 109 µg/g/day
Cmax (zebrafish [6]; [27]): 16.2 µg/g
t1/2 (zebrafish [6]; [27]): 196 h
